From EP4810052A2, “HCRHR2 SELECTIVE POLYPEPTIDES” (Gubra A/S, priority 2023, dated 2026)
Starred links: 1 amine or outer side, 2 acyl side, 3 side chain; linkers in the order of their positions; H or OH if unused. Non-standard residues stand in square brackets, D forms with d. Residues, ends and D or L forms follow the SMILES beside them. Groups on a side chain read outwards from the residue. *: point of attachment. C20 diacid = O=C(O)CCCCCCCCCCCCCCCCCCC(=O)*; γGlu = O=C(O)[C@H](CCC(=O)[*:2])N[*:1]; Nle = CCCC[C@H](N)C(=O)O; AEEA = NCCOCCOCC(=O)O

Legend:
[1] = target: T1, hCRHR1 (Homo sapiens, UniProt P34998); experiment: HTRF cAMP assay, determination of hCRHR1 potency (peptide libraries 5 conc., purified peptides 11 conc.); assay type: cell-based; details: Table 3, matched molecular pairs X^38 L vs Nle, peptide library of Example 4; read-out: hCRHR1 pEC50 (converted)
T1 sequence (P34998 24-415): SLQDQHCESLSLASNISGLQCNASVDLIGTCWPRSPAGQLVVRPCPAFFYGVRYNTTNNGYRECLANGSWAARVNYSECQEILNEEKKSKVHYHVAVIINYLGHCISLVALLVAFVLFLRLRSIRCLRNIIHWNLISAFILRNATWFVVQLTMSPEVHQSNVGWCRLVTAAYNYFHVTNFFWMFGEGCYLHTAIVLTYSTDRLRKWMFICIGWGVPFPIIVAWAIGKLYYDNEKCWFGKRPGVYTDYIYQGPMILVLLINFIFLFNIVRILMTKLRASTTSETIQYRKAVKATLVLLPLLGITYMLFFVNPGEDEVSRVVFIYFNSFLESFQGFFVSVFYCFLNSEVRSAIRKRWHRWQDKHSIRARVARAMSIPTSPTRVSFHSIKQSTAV
Source text: HTRF (CisBio) cAMP assay: The assay technology has thoroughly been described in the CisBio HTRF cAMP assay Kit manual (# 62AM4PEC). Briefly, time resolved fluorescence technic was applied to measure cAMP. This technic is based on a competitive immunoassay using cryptate-labelled anti-cAMP antibody and d2-labeled cAMP. In the absence of cellular cAMP, the anti-cAMP cryptate conjugate may get into proximity to cAMP-d2 conjugate and energy (FRET) can be transferred from cryptate to d2. CHO-K1 cells stably expressing the human corticotropin-releasing hormone receptor 1 (Eurofins/DiscoverX Cat #95-0047C2 hCRHR1 stable monoclonal cell lines) were used as cells in suspension, brought to life from frozen cell stocks immediately before assay performance. […] Concentration-response evaluation of compounds was performed with 5 concentrations of agonist peptides and EC50 values were calculated by nonlinear regression using sigmoid concentration-response with variable slope. Concentration-response evaluation of compounds was performed with 11 concentrations of agonist peptides and EC50 values were calculated by nonlinear regression using sigmoid concentration-response with variable slope.

[2] = target: T2, hCRHR2 (Homo sapiens, UniProt Q13324); experiment: HTRF cAMP assay, determination of hCRHR2 potency (peptide libraries 5 conc., purified peptides 11 conc.); assay type: cell-based; details: Table 3, matched molecular pairs X^38 L vs Nle, peptide library of Example 4; read-out: hCRHR2 pEC50 (converted)
T2 sequence (Q13324 1-411): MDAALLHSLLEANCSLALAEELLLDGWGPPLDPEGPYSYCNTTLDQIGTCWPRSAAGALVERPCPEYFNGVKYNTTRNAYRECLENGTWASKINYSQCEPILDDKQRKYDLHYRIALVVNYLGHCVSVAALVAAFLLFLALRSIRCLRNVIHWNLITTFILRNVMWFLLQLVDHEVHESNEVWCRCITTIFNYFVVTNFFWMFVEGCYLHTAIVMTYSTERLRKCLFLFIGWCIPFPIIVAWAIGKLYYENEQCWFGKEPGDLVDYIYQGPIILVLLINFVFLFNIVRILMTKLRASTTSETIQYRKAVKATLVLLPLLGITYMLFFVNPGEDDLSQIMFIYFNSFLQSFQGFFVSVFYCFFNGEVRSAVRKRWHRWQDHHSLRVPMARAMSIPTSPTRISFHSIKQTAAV
Source text: HTRF (CisBio) cAMP assay: The assay technology has thoroughly been described in the CisBio HTRF cAMP assay Kit manual (# 62AM4PEC). Briefly, time resolved fluorescence technic was applied to measure cAMP. This technic is based on a competitive immunoassay using cryptate-labelled anti-cAMP antibody and d2-labeled cAMP. In the absence of cellular cAMP, the anti-cAMP cryptate conjugate may get into proximity to cAMP-d2 conjugate and energy (FRET) can be transferred from cryptate to d2.
CHO-K1 cells stably expressing the human corticotropin-releasing hormone receptor 2 (Eurofins/DiscoverX, Cat #95-0048C2 hCRHR2 stable monoclonal cell lines) were used as cells in suspension, brought to life from frozen cell stocks immediately before assay performance.
Concentration-response evaluation of compounds was performed with 5 concentrations of agonist peptides and EC50 values were calculated by nonlinear regression using sigmoid concentration-response with variable slope.
Concentration-response evaluation of compounds was performed with 11 concentrations of agonist peptides and EC50 values were calculated by nonlinear regression using sigmoid concentration-response with variable slope.

Structure (SMILES)	EC50 [1] [nM]	EC50 [2] [nM]
CCCC[C@H](NC(=O)[C@@H](NC(=O)[C@H](CCC(=O)O)NC(=O)[C@H](C)NC(=O)[C@H](CC(N)=O)NC(=O)[C@@H](NC(=O)[C@H](CCCCNC(=O)COCCOCCNC(=O)COCCOCCNC(=O)CC[C@H](NC(=O)CC[C@H](NC(=O)CCCCCCCCCCCCCCCCCCC(=O)O)C(=O)O)C(=O)O)NC(=O)[C@H](C)NC(=O)[C@H](CCC(N)=O)NC(=O)[C@H](CCC(=O)O)NC(=O)[C@H](CCCNC(=N)N)NC(=O)[C@H](C)NC(=O)[C@H](C)NC(=O)[C@H](CCC(=O)O)NC(=O)[C@H](C)NC(=O)[C@H](CCCNC(=N)N)NC(=O)[C@H](C)NC(=O)[C@H](CCC(N)=O)NC(=O)[C@H](CCC(=O)O)NC(=O)[C@H](CC(C)C)NC(=O)[C@H](CC(C)C)NC(=O)[C@@H](NC(=O)[C@H](CCC(N)=O)NC(=O)[C@H](CC(C)C)NC(=O)[C@H](CC(C)C)NC(=O)CNC(=O)[C@@H](NC(=O)[C@@H]1CCCN1C(=O)[C@@H](NC(=O)[C@H](CC(=O)O)NC(=O)[C@H](CC(C)C)NC(=O)[C@H](CO)NC(=O)[C@H](CC(C)C)NC(=O)[C@@H](NC(=O)[C@@H](N)[C@@H](C)CC)C(C)C)C(C)C)[C@@H](C)CC)[C@@H](C)CC)[C@@H](C)O)[C@@H](C)CC)C(=O)N[C@@H](C)C(=O)N[C@@H](CCC(=O)O)C(=O)N[C@H](C(N)=O)C(C)C [SEQ ID NO: 26] (H-IVLSLDVPIGLLQILLEQARAEAAREQAK([AEEA-AEEA-γGlu-γGlu-C20 diacid])TNAEI[Nle]AEV-NH2)	251	0.316
CC[C@H](C)[C@H](N)C(=O)N[C@H](C(=O)N[C@@H](CC(C)C)C(=O)N[C@@H](CO)C(=O)N[C@@H](CC(C)C)C(=O)N[C@@H](CC(=O)O)C(=O)N[C@H](C(=O)N1CCC[C@H]1C(=O)N[C@H](C(=O)NCC(=O)N[C@@H](CC(C)C)C(=O)N[C@@H](CC(C)C)C(=O)N[C@@H](CCC(N)=O)C(=O)N[C@H](C(=O)N[C@@H](CC(C)C)C(=O)N[C@@H](CC(C)C)C(=O)N[C@@H](CCC(=O)O)C(=O)N[C@@H](CCC(N)=O)C(=O)N[C@@H](C)C(=O)N[C@@H](CCCNC(=N)N)C(=O)N[C@@H](C)C(=O)N[C@@H](CCCNC(=N)N)C(=O)N[C@@H](C)C(=O)N[C@@H](C)C(=O)N[C@@H](CCCNC(=N)N)C(=O)N[C@@H](CCC(N)=O)C(=O)N[C@@H](CCC(N)=O)C(=O)N[C@@H](C)C(=O)N[C@@H](CCCCNC(=O)COCCOCCNC(=O)COCCOCCNC(=O)CC[C@H](NC(=O)CC[C@H](NC(=O)CCCCCCCCCCCCCCCCCCC(=O)O)C(=O)O)C(=O)O)C(=O)N[C@H](C(=O)N[C@@H](CC(N)=O)C(=O)N[C@@H](C)C(=O)N[C@@H](CCC(=O)O)C(=O)N[C@H](C(=O)N[C@@H](CC(C)C)C(=O)N[C@@H](C)C(=O)N[C@@H](CCC(=O)O)C(=O)N[C@H](C(N)=O)[C@@H](C)CC)[C@@H](C)CC)[C@@H](C)O)[C@@H](C)CC)[C@@H](C)CC)C(C)C)C(C)C [SEQ ID NO: 27] (H-IVLSLDVPIGLLQILLEQARARAARQQAK([AEEA-AEEA-γGlu-γGlu-C20 diacid])TNAEILAEI-NH2)	63100	0.316
CCCC[C@H](NC(=O)[C@@H](NC(=O)[C@H](CCC(=O)O)NC(=O)[C@H](C)NC(=O)[C@H](CC(N)=O)NC(=O)[C@@H](NC(=O)[C@H](CCCCNC(=O)COCCOCCNC(=O)COCCOCCNC(=O)CC[C@H](NC(=O)CC[C@H](NC(=O)CCCCCCCCCCCCCCCCCCC(=O)O)C(=O)O)C(=O)O)NC(=O)[C@H](C)NC(=O)[C@H](CCC(N)=O)NC(=O)[C@H](CCC(N)=O)NC(=O)[C@H](CCCNC(=N)N)NC(=O)[C@H](C)NC(=O)[C@H](C)NC(=O)[C@H](CCCNC(=N)N)NC(=O)[C@H](C)NC(=O)[C@H](CCCNC(=N)N)NC(=O)[C@H](C)NC(=O)[C@H](CCC(N)=O)NC(=O)[C@H](CCC(=O)O)NC(=O)[C@H](CC(C)C)NC(=O)[C@H](CC(C)C)NC(=O)[C@@H](NC(=O)[C@H](CCC(N)=O)NC(=O)[C@H](CC(C)C)NC(=O)[C@H](CC(C)C)NC(=O)CNC(=O)[C@@H](NC(=O)[C@@H]1CCCN1C(=O)[C@@H](NC(=O)[C@H](CC(=O)O)NC(=O)[C@H](CC(C)C)NC(=O)[C@H](CO)NC(=O)[C@H](CC(C)C)NC(=O)[C@@H](NC(=O)[C@@H](N)[C@@H](C)CC)C(C)C)C(C)C)[C@@H](C)CC)[C@@H](C)CC)[C@@H](C)O)[C@@H](C)CC)C(=O)N[C@@H](C)C(=O)N[C@@H](CCC(=O)O)C(=O)N[C@H](C(N)=O)[C@@H](C)CC [SEQ ID NO: 28] (H-IVLSLDVPIGLLQILLEQARARAARQQAK([AEEA-AEEA-γGlu-γGlu-C20 diacid])TNAEI[Nle]AEI-NH2)	1260	0.158
CC[C@H](C)[C@H](N)C(=O)N[C@H](C(=O)N[C@@H](CC(C)C)C(=O)N[C@@H](CO)C(=O)N[C@@H](CC(C)C)C(=O)N[C@@H](CC(=O)O)C(=O)N[C@H](C(=O)N1CCC[C@H]1C(=O)N[C@H](C(=O)NCC(=O)N[C@@H](CC(C)C)C(=O)N[C@@H](CC(C)C)C(=O)N[C@@H](CCC(N)=O)C(=O)N[C@H](C(=O)N[C@@H](CC(C)C)C(=O)N[C@@H](CC(C)C)C(=O)N[C@@H](CCC(=O)O)C(=O)N[C@@H](CCC(N)=O)C(=O)N[C@@H](C)C(=O)N[C@@H](CCCNC(=N)N)C(=O)N[C@@H](C)C(=O)N[C@@H](CCCNC(=N)N)C(=O)N[C@@H](CCC(N)=O)C(=O)N[C@@H](C)C(=O)N[C@@H](CCCNC(=N)N)C(=O)N[C@@H](CCC(=O)O)C(=O)N[C@@H](CCC(N)=O)C(=O)N[C@@H](C)C(=O)N[C@@H](CCCCNC(=O)COCCOCCNC(=O)COCCOCCNC(=O)CC[C@H](NC(=O)CC[C@H](NC(=O)CCCCCCCCCCCCCCCCCCC(=O)O)C(=O)O)C(=O)O)C(=O)N[C@H](C(=O)N[C@@H](CC(N)=O)C(=O)N[C@@H](C)C(=O)N[C@@H](CCC(=O)O)C(=O)N[C@H](C(=O)N[C@@H](CC(C)C)C(=O)N[C@@H](C)C(=O)N[C@@H](CCC(=O)O)C(=O)N[C@H](C(N)=O)[C@@H](C)CC)[C@@H](C)CC)[C@@H](C)O)[C@@H](C)CC)[C@@H](C)CC)C(C)C)C(C)C [SEQ ID NO: 29] (H-IVLSLDVPIGLLQILLEQARARQAREQAK([AEEA-AEEA-γGlu-γGlu-C20 diacid])TNAEILAEI-NH2)	39800	0.251
CCCC[C@H](NC(=O)[C@@H](NC(=O)[C@H](CCC(=O)O)NC(=O)[C@H](C)NC(=O)[C@H](CC(N)=O)NC(=O)[C@@H](NC(=O)[C@H](CCCCNC(=O)COCCOCCNC(=O)COCCOCCNC(=O)CC[C@H](NC(=O)CC[C@H](NC(=O)CCCCCCCCCCCCCCCCCCC(=O)O)C(=O)O)C(=O)O)NC(=O)[C@H](C)NC(=O)[C@H](CCC(N)=O)NC(=O)[C@H](CCC(=O)O)NC(=O)[C@H](CCCNC(=N)N)NC(=O)[C@H](C)NC(=O)[C@H](CCC(N)=O)NC(=O)[C@H](CCCNC(=N)N)NC(=O)[C@H](C)NC(=O)[C@H](CCCNC(=N)N)NC(=O)[C@H](C)NC(=O)[C@H](CCC(N)=O)NC(=O)[C@H](CCC(=O)O)NC(=O)[C@H](CC(C)C)NC(=O)[C@H](CC(C)C)NC(=O)[C@@H](NC(=O)[C@H](CCC(N)=O)NC(=O)[C@H](CC(C)C)NC(=O)[C@H](CC(C)C)NC(=O)CNC(=O)[C@@H](NC(=O)[C@@H]1CCCN1C(=O)[C@@H](NC(=O)[C@H](CC(=O)O)NC(=O)[C@H](CC(C)C)NC(=O)[C@H](CO)NC(=O)[C@H](CC(C)C)NC(=O)[C@@H](NC(=O)[C@@H](N)[C@@H](C)CC)C(C)C)C(C)C)[C@@H](C)CC)[C@@H](C)CC)[C@@H](C)O)[C@@H](C)CC)C(=O)N[C@@H](C)C(=O)N[C@@H](CCC(=O)O)C(=O)N[C@H](C(N)=O)[C@@H](C)CC [SEQ ID NO: 30] (H-IVLSLDVPIGLLQILLEQARARQAREQAK([AEEA-AEEA-γGlu-γGlu-C20 diacid])TNAEI[Nle]AEI-NH2)	1580	0.126
